Measured values as given in patent publication US6750244B2, “Compounds active at a novel site on receptor-operated calcium channels useful for treatment of neurological disorders and diseases” (NPS Pharmaceuticals, Inc., priority 1993, dated 2004).
Like-named read-outs stand apart in the source and are kept apart here.

Key:
induction of LTP = tested on: induction of LTP; design: species or system rat; details: at 100 μM
NMDA receptor [1] = test: Inhibition of NMDA/glycine-induced increases in intracellular calcium in cultured rat cerebellar granule cells (RCGC); format: cell-based; details: NMDA/glycine-induced increases in intracellular calcium, cultured rat cerebellar granule cells; read-out: IC50 (μM) vs. NMDA
in vivo [2] = details: mouse, in vivo, ip
Protocol: (§1) In this assay, Frings and CF1 mice were injected with test compound and placed on a knurled rod which rotated at a speed of 6 rpm. The ability of the mice to maintain equilibrium for long periods of time was determined; those mice that were unable to maintain equilibrium on the rotorod for 1 min in each of 3 trials were considered impaired.

motor performance = test: Acute motor impairment (rotorod) in mice; details: for TD50 (motor impairment): Frings mice
Protocol: as §1

behavior [3] = test: Behavioral effects in conscious male Wistar rats
permanent focal ischemia = test: Permanent focal cerebral ischemia (middle cerebral artery occlusion, suture); format: in vivo, rat; details: 1 mg/kg i.p. at 30 min and again 4 hr post-occlusion
Protocol: In the second study of focal cerebral ischemia in the rat, the middle cerebral artery was permanently occluded by passing a small piece of suture thread through the carotid artery to the region of the middle cerebral artery. Core body temperature was maintained at 37° C. Compound 4, 10 mg/kg i.p. administered immediately after the onset of the ischemic event, produced a statistically significant reduction in the volume of the brain infarct (20%) recorded 24 hr later.

behavior [4] = test: Behavioral effects in conscious beagle dogs
[5] = target: T1, norepinephrine uptake site (Rattus norvegicus, UniProt Q63380); test: Norepinephrine uptake binding assay: [3H]desipramine binding to rat cortical membranes
T1 construct: from tissue; host or cells: rat cortical membranes (per the assay title)

[6] = target: NMDA receptor-ionophore complex (site labeled by [3H]MK-801); test: Inhibition of [3H]MK-801 binding in rat cortical/hippocampal washed membrane preparations; details: read-out: IC50 (μM) vs. [3H]MK-801; rat cortical/hippocampal washed membranes
[7] = tested on: formalin-induced flinching; format: in vivo, Sprague-Dawley rats; details: 10 mg/kg i.p.
[8] = tested on: maximal electroshock-induced seizures; test: Maximal electroshock-induced seizures in mice; format: in vivo; details: mice; for ED50: Mus musculus, ip
sound-induced seizures = test: Sound-induced seizures in Frings mice (reflex epilepsy); format: in vivo; details: Mus musculus, Frings mice
dopamine uptake site = target: T2, dopamine uptake site (Cavia porcellus, UniProt H0WCX4); test: Dopamine uptake binding assay: [3H]WIN-35,428 binding to guinea pig striatal membranes
T2 construct: from tissue; host or cells: guinea pig striatal membranes (per the assay title)

[9] = tested on: mean arterial blood pressure
[10] = Motor toxicity (TD50) in rats; details: rat, in vivo, po
thermal nociception [11] = format: in vivo, rats; details: 25 mg/kg i.p.
Protocol: In this standard assay, the thermal nociceptive stimulus was 52° C. warm water with the latency to tail flick or withdrawal taken as the endpoint.

behavior [12] = test: Behavioral effects in conscious male NMRI mice
[13] = tested on: maximal electroshock-induced seizures; test: Maximal electroshock-induced seizures in rats; format: in vivo; details: Rattus norvegicus, read-out: ED50, maximal electroshock-induced seizures
[14] = tested on: mean arterial pressure, heart rate, ECG; test: Cardiovascular activity in conscious beagle dogs
[15] = tested on: delayed rectifier potassium channel; test: Inhibition of delayed rectifier potassium channel in cultured N1E-115 neuroblastoma cells; format: cell-based; details: read-out: Delayed rectifier potassium channel: estimated IC50
NMDA receptor [16] = details: rat hippocampal slices
Protocol: Glutamate-mediated transmission at synapses of Schaffer collateral fibers and CA1 pyramidal cells was measured in slices of rat brain containing the hippocampus. This assay measures electrophysiologically the postsynaptic depolarization caused by the presynaptic release of glutamate, and can readily distinguish synaptic transmission mediated by NMDA or AMPA receptors.

[17] = tested on: acetic acid-induced writhing; format: in vivo, mice; details: 10 mg/kg i.p.
temporary focal ischemia = test: Temporary focal cerebral ischemia (middle cerebral artery occlusion, suture withdrawn after 2 hr); format: in vivo, rat; details: two doses of 1 mg/kg i.p.
Protocol: In a fourth model of focal cerebral ischemia in the rat, the middle cerebral artery was temporarily occluded by passing a small piece of suture thread through the carotid artery to the region of the middle cerebral artery. The suture thread was withdrawn after an ischemic period of 2 hr. Core body temperature was maintained at 37° C. […]

serotonin uptake site = target: T3, serotonin uptake site (Rattus norvegicus, UniProt P31652); test: Serotonin uptake binding assay: [3H]citalopram binding to rat forebrain membranes
T3 construct: from tissue; host or cells: rat forebrain membranes (per the assay title)

seizure threshold = test: i.v. Metrazol test (seizure threshold) in mice; format: in vivo; details: 10 mg/kg i.p.
focal ischemia = test: Photothrombotic (Rose Bengal) model of focal cerebral ischemia; format: in vivo, rat; details: 10 mg/kg i.p. at 15 min, 3 hr, and again 6 hr post-occlusion
From the text: In a third model of focal cerebral ischemia in the rat, an ischemic infarct was produced by a photothrombotic method using the dye Rose Bengal.

[18] = tested on: central muscarinic cholinergic receptor; format: binding, rat
thermal nociception [19] = format: in vivo, rats; details: 25 mg/kg i.p.; remark: listed apart in the source
Protocol: In these experiments, a 52° C. hot plate was used as the nociceptive stimulus.

[20] = tested on: PCP-like discriminative stimulus effects; format: in vivo, rats; details: i.p., rats
From the text: In this assay, rats who have been trained to lever press for food reinforcement must select which of two levers in their cages is correct. The only stimulus they hive for selecting the correct lever is their ability to detect whether they received a PCP or vehicle injection After about two months of training, rats become very good at discriminating PCP from vehicle injections and can then be tested with other drugs to determine if they are discriminated as PCP. When tested in this procedure, other drugs which are known to produce a PCP-like intoxication substitute for PCP. These drugs include various PCP analogs such as ketamine and the noncompetitive NMDA receptor antagonist, MK-801.

L-type calcium channel = tested on: T4, L-type calcium channel; test: Inhibition of KCl depolarization-induced increases in intracellular calcium in cultured rat cerebellar granule cells; format: cell-based; details: cultured rat cerebellar granule cells; read-out: L-type calcium channel: estimated IC50, KCl depolarization-induced increases in intracellular calcium
T4 construct: L-type calcium channel: estimated IC50, KCl depolarization-induced increases in intracellular calcium; other: cultured
From the text: The ability of arylalkylamines to inhibit dihydropyridine-sensitive Ca^2+ channels was examined in cerebellar granule cells and a rat aortic smooth muscle cell line, A7r5 cells.

in vivo [21] = details: rat, po
focal ischemic stroke = test: Rat model of focal ischemic stroke (vessel occlusion); format: in vivo, rats; details: i.p. 2 mg/kg 30 min prior to vessel occlusion and 2 mg/kg 3 hr post-occlusion
GluR1 [22] = target: T5, GluR1 (Rattus norvegicus, UniProt P19490); details: cited from earlier work
T5 construct: host or cells: Xenopus oocytes

GluR3 = target: T6, GluR3 (Rattus norvegicus, UniProt P19492); details: cited from earlier work
T6 construct: host or cells: Xenopus oocytes

kainate receptors = details: read-out: IC50, kainate-induced responses; cited from earlier work
NMDAR1 = target: T7, NMDAR1 (UniProt A7XY94+P35439); details: cited from earlier work
T7 construct: host or cells: Xenopus oocytes

GluR1 [23] = target: T5, GluR1; details: cited from earlier work; remark: listed apart in the source
GluR1+GluR2 = target: T8, GluR1+GluR2 (Rattus norvegicus, UniProt P19490+P19491, Q607R); details: cited from earlier work
T8 construct: host or cells: Xenopus oocytes

NMDA receptors = details: read-out: IC50, NMDA-induced responses; cited from earlier work
[24] = tested on: muscle relaxation and anesthesia; details: intrathecal administration; cited from earlier work
[25] = 3 mg/kg i.v. (60 sec bolus injection)
[26] = 10 mg/kg i.v. (60 sec bolus injection)

T2 sequence (H0WCX4 1-619): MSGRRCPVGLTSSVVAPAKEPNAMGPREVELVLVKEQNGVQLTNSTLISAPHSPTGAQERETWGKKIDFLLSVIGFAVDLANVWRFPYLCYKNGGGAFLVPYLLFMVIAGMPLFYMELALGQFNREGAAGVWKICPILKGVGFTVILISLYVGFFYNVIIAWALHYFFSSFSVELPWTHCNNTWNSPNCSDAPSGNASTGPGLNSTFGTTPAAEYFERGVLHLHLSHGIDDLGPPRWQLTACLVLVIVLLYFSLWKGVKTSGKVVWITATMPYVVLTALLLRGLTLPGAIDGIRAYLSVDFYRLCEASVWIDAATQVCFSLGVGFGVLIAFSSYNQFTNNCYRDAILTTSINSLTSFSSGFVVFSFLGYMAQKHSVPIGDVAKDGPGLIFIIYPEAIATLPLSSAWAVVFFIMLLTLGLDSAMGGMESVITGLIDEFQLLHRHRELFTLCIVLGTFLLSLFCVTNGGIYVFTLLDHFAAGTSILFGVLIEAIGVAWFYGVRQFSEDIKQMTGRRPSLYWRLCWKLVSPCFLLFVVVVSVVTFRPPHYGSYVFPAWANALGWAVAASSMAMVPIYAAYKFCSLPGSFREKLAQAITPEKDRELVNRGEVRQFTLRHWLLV
T1 sequence (Q63380 1-617): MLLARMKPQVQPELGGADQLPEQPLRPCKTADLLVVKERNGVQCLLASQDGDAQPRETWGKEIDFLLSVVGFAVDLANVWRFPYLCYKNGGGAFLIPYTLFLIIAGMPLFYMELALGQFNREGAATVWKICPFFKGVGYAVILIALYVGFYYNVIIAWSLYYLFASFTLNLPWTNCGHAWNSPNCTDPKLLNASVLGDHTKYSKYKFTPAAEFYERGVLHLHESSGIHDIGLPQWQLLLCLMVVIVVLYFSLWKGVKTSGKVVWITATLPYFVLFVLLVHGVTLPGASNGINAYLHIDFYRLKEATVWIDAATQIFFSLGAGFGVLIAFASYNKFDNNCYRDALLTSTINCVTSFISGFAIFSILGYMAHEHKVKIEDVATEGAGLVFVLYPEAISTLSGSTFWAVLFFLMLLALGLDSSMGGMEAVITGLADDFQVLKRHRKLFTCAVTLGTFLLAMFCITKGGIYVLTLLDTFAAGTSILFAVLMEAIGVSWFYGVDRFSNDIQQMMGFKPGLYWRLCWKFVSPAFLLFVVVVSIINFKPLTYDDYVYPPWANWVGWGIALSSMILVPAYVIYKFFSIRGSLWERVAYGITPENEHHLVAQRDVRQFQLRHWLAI
T3 sequence (P31652 whole entry): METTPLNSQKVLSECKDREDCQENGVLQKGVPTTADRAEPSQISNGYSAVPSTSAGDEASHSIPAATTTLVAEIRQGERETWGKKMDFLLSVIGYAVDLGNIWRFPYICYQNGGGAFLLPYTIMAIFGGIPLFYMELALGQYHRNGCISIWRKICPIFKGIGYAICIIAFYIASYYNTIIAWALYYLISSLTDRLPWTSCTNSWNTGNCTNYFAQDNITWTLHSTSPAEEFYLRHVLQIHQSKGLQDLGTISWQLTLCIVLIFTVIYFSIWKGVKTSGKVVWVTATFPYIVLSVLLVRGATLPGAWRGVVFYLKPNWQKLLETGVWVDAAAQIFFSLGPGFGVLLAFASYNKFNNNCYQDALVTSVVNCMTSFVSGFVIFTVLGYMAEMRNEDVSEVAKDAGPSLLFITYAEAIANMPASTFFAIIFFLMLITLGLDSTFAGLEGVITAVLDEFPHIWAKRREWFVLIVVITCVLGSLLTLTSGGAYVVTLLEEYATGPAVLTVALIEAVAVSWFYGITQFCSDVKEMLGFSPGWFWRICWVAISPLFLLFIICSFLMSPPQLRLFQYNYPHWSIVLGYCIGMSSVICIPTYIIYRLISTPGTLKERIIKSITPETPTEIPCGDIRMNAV
T5 sequence (P19490 19-907): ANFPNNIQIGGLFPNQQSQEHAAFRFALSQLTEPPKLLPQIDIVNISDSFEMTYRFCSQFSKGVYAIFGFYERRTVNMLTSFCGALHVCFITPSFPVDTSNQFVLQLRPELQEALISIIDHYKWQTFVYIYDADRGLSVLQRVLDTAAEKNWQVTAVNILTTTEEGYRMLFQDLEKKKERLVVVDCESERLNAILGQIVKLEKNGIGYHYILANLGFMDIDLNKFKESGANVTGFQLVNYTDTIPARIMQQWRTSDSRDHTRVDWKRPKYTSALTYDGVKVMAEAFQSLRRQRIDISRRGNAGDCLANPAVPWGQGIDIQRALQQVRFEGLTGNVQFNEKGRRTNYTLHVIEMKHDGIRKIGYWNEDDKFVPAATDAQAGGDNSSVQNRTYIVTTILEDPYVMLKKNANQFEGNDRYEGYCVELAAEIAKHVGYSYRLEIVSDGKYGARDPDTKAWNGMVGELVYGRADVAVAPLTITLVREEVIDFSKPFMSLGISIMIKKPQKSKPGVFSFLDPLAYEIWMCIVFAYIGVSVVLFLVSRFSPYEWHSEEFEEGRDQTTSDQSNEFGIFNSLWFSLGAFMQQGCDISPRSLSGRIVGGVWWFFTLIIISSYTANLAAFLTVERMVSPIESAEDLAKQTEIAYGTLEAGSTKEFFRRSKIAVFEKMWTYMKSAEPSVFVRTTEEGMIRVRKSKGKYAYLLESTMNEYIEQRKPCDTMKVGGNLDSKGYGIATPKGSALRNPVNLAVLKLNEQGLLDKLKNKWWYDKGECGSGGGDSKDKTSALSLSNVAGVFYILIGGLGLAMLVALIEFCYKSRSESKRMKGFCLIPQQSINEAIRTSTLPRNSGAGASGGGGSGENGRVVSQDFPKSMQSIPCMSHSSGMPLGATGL
T7 sequence (A7XY94 25-1448, other chains not shown): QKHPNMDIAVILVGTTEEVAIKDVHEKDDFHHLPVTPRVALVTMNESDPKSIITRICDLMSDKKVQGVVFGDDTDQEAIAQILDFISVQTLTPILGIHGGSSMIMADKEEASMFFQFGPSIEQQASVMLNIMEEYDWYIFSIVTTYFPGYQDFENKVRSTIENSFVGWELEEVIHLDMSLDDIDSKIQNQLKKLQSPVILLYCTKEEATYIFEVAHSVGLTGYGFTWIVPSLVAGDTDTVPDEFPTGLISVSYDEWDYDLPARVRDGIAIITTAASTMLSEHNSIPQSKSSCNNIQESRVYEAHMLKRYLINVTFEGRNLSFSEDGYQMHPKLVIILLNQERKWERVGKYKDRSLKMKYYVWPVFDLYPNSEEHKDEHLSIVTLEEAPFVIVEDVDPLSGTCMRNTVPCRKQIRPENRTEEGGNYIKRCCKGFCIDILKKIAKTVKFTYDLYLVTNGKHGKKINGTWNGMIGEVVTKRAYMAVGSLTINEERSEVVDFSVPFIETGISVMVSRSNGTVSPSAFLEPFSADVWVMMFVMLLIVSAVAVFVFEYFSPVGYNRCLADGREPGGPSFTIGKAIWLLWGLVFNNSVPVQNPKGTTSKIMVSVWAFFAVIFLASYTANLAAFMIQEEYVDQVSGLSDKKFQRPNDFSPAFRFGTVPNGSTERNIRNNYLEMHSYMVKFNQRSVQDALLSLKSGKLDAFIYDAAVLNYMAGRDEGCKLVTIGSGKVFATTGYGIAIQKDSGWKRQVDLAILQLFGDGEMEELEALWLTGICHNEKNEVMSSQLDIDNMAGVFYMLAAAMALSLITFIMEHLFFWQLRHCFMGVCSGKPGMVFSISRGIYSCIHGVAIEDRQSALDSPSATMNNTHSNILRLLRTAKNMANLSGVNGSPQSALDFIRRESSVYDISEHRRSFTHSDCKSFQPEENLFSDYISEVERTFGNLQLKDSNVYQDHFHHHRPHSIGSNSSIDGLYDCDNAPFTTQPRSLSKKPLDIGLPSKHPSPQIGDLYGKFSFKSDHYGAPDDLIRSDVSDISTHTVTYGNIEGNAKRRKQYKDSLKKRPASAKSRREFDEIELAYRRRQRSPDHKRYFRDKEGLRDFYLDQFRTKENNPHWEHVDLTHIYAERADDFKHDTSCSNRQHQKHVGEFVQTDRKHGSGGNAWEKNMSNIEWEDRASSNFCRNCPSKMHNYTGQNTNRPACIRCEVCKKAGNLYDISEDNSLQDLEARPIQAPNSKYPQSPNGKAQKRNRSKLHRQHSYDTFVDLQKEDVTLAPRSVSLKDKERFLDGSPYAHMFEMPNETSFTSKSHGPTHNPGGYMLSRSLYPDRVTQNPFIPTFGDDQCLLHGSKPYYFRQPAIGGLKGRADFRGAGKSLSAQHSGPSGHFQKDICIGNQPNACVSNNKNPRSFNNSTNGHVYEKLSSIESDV
T6 sequence (P19492 23-888): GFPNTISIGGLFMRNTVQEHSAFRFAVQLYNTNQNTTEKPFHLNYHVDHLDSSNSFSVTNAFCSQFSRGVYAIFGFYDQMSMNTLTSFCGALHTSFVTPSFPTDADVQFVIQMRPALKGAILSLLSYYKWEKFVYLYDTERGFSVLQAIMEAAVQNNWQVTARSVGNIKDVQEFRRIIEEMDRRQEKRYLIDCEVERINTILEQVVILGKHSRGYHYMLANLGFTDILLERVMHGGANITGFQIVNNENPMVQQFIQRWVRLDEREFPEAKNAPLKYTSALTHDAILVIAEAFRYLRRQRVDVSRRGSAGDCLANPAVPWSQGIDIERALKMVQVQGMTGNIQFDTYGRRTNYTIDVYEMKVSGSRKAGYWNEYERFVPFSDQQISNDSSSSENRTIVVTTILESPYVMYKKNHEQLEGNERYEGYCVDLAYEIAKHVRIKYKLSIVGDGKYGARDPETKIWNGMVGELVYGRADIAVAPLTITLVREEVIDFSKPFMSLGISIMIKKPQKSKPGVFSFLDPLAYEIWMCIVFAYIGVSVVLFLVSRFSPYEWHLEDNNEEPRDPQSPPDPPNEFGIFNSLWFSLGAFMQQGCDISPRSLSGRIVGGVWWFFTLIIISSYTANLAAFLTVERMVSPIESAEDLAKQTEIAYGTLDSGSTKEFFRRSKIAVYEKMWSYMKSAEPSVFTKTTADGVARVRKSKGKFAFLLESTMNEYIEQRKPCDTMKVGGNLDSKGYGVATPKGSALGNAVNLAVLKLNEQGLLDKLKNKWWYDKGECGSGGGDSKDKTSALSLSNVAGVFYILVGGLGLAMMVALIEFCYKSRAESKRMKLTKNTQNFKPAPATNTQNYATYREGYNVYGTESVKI

NCCC(c1cccc(F)c1)c1cccc(F)c1 [Compound 20, 3,3-bis(3-fluorophenyl)-1-propylamine]
LTP Assay (block of the induction of LTP) (induction of LTP): block at 100
IC50 (NMDA receptor [1]): 0.07 µM
TD50 (in vivo [2]): 20.6 mg/kg
TD50 (motor impairment) (motor performance; i.p.): 19.9 mg/kg
TD50 (motor impairment) (motor performance; oral): 21.8 mg/kg
motor impairment (motor performance; mice, 30 mg/kg p.o.): motor impairment
behavioral effects (behavior [3]; 2 mg/kg i.v.): no behavioral effects
behavioral effects (behavior [3]; 32 mg/kg i.v.): Straub tail, convulsions, and death
behavioral effects (behavior [3]; doses ranging from 4 to 16 mg/kg i.v.): excitation, stereotypies, increased reactivity to touch, increased muscle tone, and tremor
reduction in the infarct volume (permanent focal ischemia): 24%
behavioral effects (behavior [4]; [25]): increased motor activity, agitation and anxiousness, slight tremors, licking of the mouth, whining, and urination
behavioral effects (behavior [4]; [26]): dilated pupils, whole body tremors, incoordination, licking of the mouth, salivation, panting, rapid blinking of the eyes, whining, anxiousness, seizures, and death
Monoamine uptake binding assays: norepinephrine uptake binding assay, percent block ([5]; at 0.1 μM): 5% at
Monoamine uptake binding assays: norepinephrine uptake binding assay, percent block ([5]; at 10 μM): 0.1^g58% at
IC50 [6]: 0.252 µM
analgesic activity, rat formalin test [7]: significant analgesic activity, not blocked by the opiate receptor antagonist naloxone
ED50 [8]: 20.1 mg/kg
no significant anticonvulsant activity against maximal electroshock-induced seizures at doses up to ([8]; oral (p.o.)): up to 30 mg/kg
ED50 (sound-induced seizures; ip): 2.1 mg/kg
ED50 (sound-induced seizures; oral): 9.7 mg/kg
Monoamine uptake binding assays: dopamine uptake binding assay, percent block (dopamine uptake site; at 0.1 μM): 6% at
Monoamine uptake binding assays: dopamine uptake binding assay, percent block (dopamine uptake site; at 10 μM): 0.1^f81% at
no significant cardiovascular activity in anesthetized rats at doses up to ([9]; i.p.): ≤ 10 mg/kg
TD50 [10]: 55.9 mg/kg
analgesic activity, rat 48° C. tail flick test (thermal nociception [11]): no significant analgesic activity
behavioral effects (behavior [12]; 8 mg/kg i.p.): excitation and increased reactivity to touch
behavioral effects (behavior [12]; 64 mg/kg i.p.): convulsions and death
behavioral effects (behavior [12]; 2 and 4 mg/kg i.p.): no behavioral effects
behavioral effects (behavior [12]; 16 and 32 mg/kg i.p.): excitation, Straub tail, tremor, stereotypies, hypothermia, and mydriasis
behavioral effects (behavior [12]; 128 and 256 mg/kg i.p.): convulsions and death
ED50 ([13]; po): 33.6 mg/kg
cardiovascular activity ([14]; 0.3 mg/kg i.v. (60 sec bolus injection)): no significant cardiovascular activity
cardiovascular activity ([14]; 1 mg/kg i.v. (60 sec bolus injection)): no significant cardiovascular activity
heart rate [14, 25]: transient increases in mean arterial pressure and heart rate
mean arterial pressure [14, 25]: transient increases in mean arterial pressure and heart rate
heart rate [14, 26]: larger magnitude and longer duration effects
mean arterial pressure [14, 26]: larger magnitude and longer duration effects
IC50 [15]: 1 to 10 µM
Suppression of NMDA Receptor-Mediated Synaptic Transmission (concentration which suppresses) (NMDA receptor [16]): 30 to 300 µM
analgesic activity against acetic acid-induced abdominal writhing [17]: significant analgesic activity, not blocked by naloxone
reduction in the infarct volume (temporary focal ischemia; 2 hr after occlusion (time of reperfusion) and 6 hr later): 43%
reduction in the infarct volume (temporary focal ischemia; immediately after middle cerebral artery occlusion and 6 hr later): 51%
Monoamine uptake binding assays: serotonin uptake binding assay, percent block (serotonin uptake site; at 0.1 μM): 10^g28% at
Monoamine uptake binding assays: serotonin uptake binding assay, percent block (serotonin uptake site; at 10 μM): 0.1^h94% at
seizure threshold, i.v. Metrazol test (seizure threshold): an increase in seizure threshold
reduction in the infarct volume (focal ischemia): 50%
Central muscarinic cholinergic receptor: percent block of [3H]QNB binding ([18]; at 0.1 μM): 8% at
Central muscarinic cholinergic receptor: percent block of [3H]QNB binding ([18]; at 10 μM): 0.190% at
analgesic activity, rat 52° C. hot plate test (thermal nociception [19]): no significant analgesic activity
no generalization to PCP at doses up to the behaviorally active dose of [20]: ≤ 10 mg/kg
IC50 (L-type calcium channel): 2.2 µM

COc1ccccc1C(CCN)c1cccc(F)c1 (stereo not shown) [Compound 24, 3-(3-fluorophenyl)-3-(2-methoxyphenyl)-1-propylamine]
IC50 (NMDA receptor [1]): 0.206 µM
TD50 (in vivo [2]; Frings): 16 mg/kg
IC50 [6]: 0.591 µM
ED50 (sound-induced seizures; ip): 5 mg/kg
no significant cardiovascular activity in anesthetized rats at doses up to ([9]; i.v.): up to 10 mg/kg
ED50 ([13]; rats, oral): 46 mg/kg
TD50 (in vivo [21]): 51 mg/kg
neuroprotectant activity in a rat model of focal ischemic stroke (focal ischemic stroke): no significant neuroprotectant activity

COc1cccc(C(CCN)c2cccc(F)c2)c1 (stereo not shown) [Compound 25, 3-(3-fluorophenyl)-3-(3-methoxyphenyl)-1-propylamine]
IC50 (NMDA receptor [1]): 0.279 µM
TD50 (in vivo [2]): 32.2 mg/kg
IC50 [6]: 0.871 µM
ED50 [8]: 12.5 mg/kg
ED50 ([13]; rats, oral): 46.4 mg/kg
TD50 (in vivo [21]): 163 to 326 mg/kg

NCCCNCCCCNCCC(=O)NCCCCCNC(=O)[C@H](CC(N)=O)NC(=O)Cc1ccc(O)cc1O [JSTX-3]
IC50 (GluR1 [22]): 0.04 µM
IC50 (GluR3): 0.03 µM

CCCC(=O)N[C@@H](Cc1ccc(O)cc1)C(=O)NCCCNCCCCNCCCN [PhTX-343]
IC50 (kainate receptors): 0.12 µM
IC50 (NMDAR1): 2.19 µM
IC50 (GluR1 [23]): 2.8 µM
IC50 (GluR1+GluR2): 270 µM
IC50 (NMDA receptors): 2.5 µM

NCCCNCCCCNCCCNCCCN(O)CCCNC(=O)Cc1c[nH]c2ccccc12 [agatoxin-489]
muscle relaxation and anesthesia [24]: not
